Results published in patent US20120004282A1, “RNA Interference Mediated Inhibition of the Intercellular Adhesion Molecule 1 (ICAM-1) Gene Expression Using Short Interfering Nucleic Acid (siNA)” (Merck Sharp & Dohme Corp,, priority 2009, published 2012).
[invAb] = inverted abasic unit; m = 2'-O-methyl; r = 2'-OH (RNA); f = 2'-fluoro

Columns and labels:
ICAM-1 protein = assay: In situ ICAM-1 ELISA for surface ICAM-1 in INF-γ/TNF-α stimulated Calu-1 cells; assay type: cell-based, human; conditions: relative to UC3
Method: In a 96-well plate, 5,000 Calu-1 cells/well were seeded in 100 uL of complete growth media and incubated overnight at 37 C with 5% CO2. The cells were transfected with siNAs using RNAiMax (Invitrogen, Cat# 13778-150); final concentrations of siRNAs are 10 nM-0.0000097 nM. The amount of RNAiMax in each well is 0.3 uL. The siNAs were incubated for 6 hours. The medium was replaced with 95 uL of fresh complete growth medium and add 5 uL/well of INF-γ/TNF-α at 10 ng/ml final concentration. The cells were incubated for 24, 48, and 72 hours.
In situ ELISA for surface ICAM-1 was performed as follows. The cells were washed ×2 in PBS. The wells were pre-blocked with Super Block buffer (Pierce, Cat # 37535) for 1.5 hours at 37° C. The cells were washed ×3 with PBS. The primary monoclonal antibody (Abcam, clone MEM-111, Cat ab2213) was diluted at 1 in 3000 in Super Block buffer. 50 μl of primary antibody was added per well. The wells were shook gently at RT for 1 hour. The cells were washed ×3 with PBS. The rabbit polyclonal secondary antibody (Abcam, Cat ab6728)was diluted 1:1000 in Super Block buffer. 50 μl secondary antibody were added per well. The mixture was incubated at 37° C. for 1 hour. The cells were washed ×3 with PBS. 50 μl of TMB solution (Sigma, Cat# T-8665) was added per well and incubated in the dark for 10 minutes. 50 μl Stop solution was added. The absorbance was read at 450 nm.
The effects of siNAs on ICAM-1 protein level were compared to each other and to the effect of the universal control using a multiple comparison ANOVA test to obtain a 95% confidence interval.
Various siNAs were also evaluated for their potential to knock-down ICAM-1 protein using an ELISA assay. Six siNAs were tested in an ICAM-1 ELISA assay across a range of concentrations of siNAs. The absorbance of each sample was normalized to the average absorbance obtained from the wells that were not stimulated with INF-γ/TNF-α (n=6). These wells served as a background control (see Table 6).

OAS1 mRNA = assay: Membrane and endosomal TLR3 mediated immunostimulation, OAS1 mRNA increase in Calu 1 cells; assay type: cell-based, human; conditions: Up to 100 nM
Method: Human lung epithelial carcinoma (Calu-1) cells were grown at 37 degrees in the presence of 5% CO2 and cultured in […] supplemented with 10% fetal bovine serum, glutamine and antibiotics.
A series of probes and primers were used for the detection of mRNA transcripts of ICAM-1, OAS1, and GAPDH (as control/normalisation) in the human cell lines. The assays were performed on an ABI 7900HT instrument according to the manufacturer's instructions.
With TaqMan data, critical threshold values (Ct) were converted to copy numbers corresponding to the particular gene analysed in each well of the 384 well plate. Six identical wells were prepared in each plate for a given treatment. […] Determination of the percentage coefficient of variation (CV) (% C.V.=[standard deviation/average]*100) allowed the omitting of wells whose value was an outlier (so that % C.V.<25). Relative abundance (aka relative expression) of a gene was determined by dividing the mean copy number of that gene with its GAPDH counterpart in that particular sample.
Calu-1 or NHBE cell were treated as above in Example 2 and used for the measurement of endosomal TLR3 mediated immunostimulation, with the inclusion of polyI:C as a positive control for OAS1 mRNA upregulation. For the measurement of membrane bound TLR3 mediated immunostimulation the Calu 1 cells were cultured at 12000 cells/per 96 well and siNAs administered in PBS in the absence of a delivery vehicle at a concentration of 100 nM, 30 nM, 10 nM, 3 nM, 1 nM, and 0.3 nM.

Substance	ICAM-1 Protein % KD 24 h, 10 nM (ICAM-1 protein)	ICAM-1 Protein % KD 48 h, 10 nM (ICAM-1 protein)	ICAM-1 Protein % KD 72 h, 10 nM (ICAM-1 protein)	Membrane & Endosomal TLR3 mediated Immunostimulation OAS1 mRNA increase Calu 1 Cells (OAS1 mRNA)
29282-DC: siNA duplex, ICAM-1 target site 2113 (h); sense B cGcAucuGAucuGuAGucA TTB; antisense UGAcuAcAGAucAGAuGcGUU (sense CGCAUCUGAUCUGUAGUCATT; antisense UGACUACAGAUCAGAUGCGUU; sense: DNA at AGT, 2'-fluoro at CU, [invAb] at 5' end, 3' end, backbone not given here; antisense: sugars from the 5' end rrrffmfmmmffmmmfmfmmm, backbone not given here)	87%	64%	61%	No significant effect
29284-DC: siNA duplex, ICAM-1 target site 1141 (h); sense B cucAGucAGuGuGAccGcA TTB; antisense UGCGGucAcAcuGAcuGAGUU (sense CUCAGUCAGUGUGACCGCATT; antisense UGCGGUCACACUGACUGAGUU; sense: DNA at AGT, 2'-fluoro at CU, [invAb] at 5' end, 3' end, backbone not given here; antisense: sugars from the 5' end rrrmmffmfmffmmffmmmmm, backbone not given here)	64%	53%	44%	No significant effect
29285-DC: siNA duplex, ICAM-1 target site 537 (h); sense B GGAAcAAccGGAAGGuGuA TTB; antisense UACAccuuccGGuuGuuccUU (sense GGAACAACCGGAAGGUGUATT; antisense UACACCUUCCGGUUGUUCCUU; sense: DNA at AGT, 2'-fluoro at CU, [invAb] at 5' end, 3' end, backbone not given here; antisense: sugars from the 5' end rrrmffffffmmffmffffmm, backbone not given here)	59%	52%	36%	No significant effect
29286-DC: siNA duplex, ICAM-1 target site 1838 (h); sense B cGGAAGAucAAGAAAuAcA TTB; antisense UGUAuuucuuGAucuuccGUU (sense CGGAAGAUCAAGAAAUACATT; antisense UGUAUUUCUUGAUCUUCCGUU; sense: DNA at AGT, 2'-fluoro at CU, [invAb] at 5' end, 3' end, backbone not given here; antisense: sugars from the 5' end rrrmffffffmmffffffmmm, backbone not given here)	59%	54%	43%	No significant effect
29288-DC: siNA duplex, ICAM-1 target site 2046 (h); sense B cAuuGuccucAGucAGAuA TTB; antisense UAUcuGAcuGAGGAcAAuGUU (sense CAUUGUCCUCAGUCAGAUATT; antisense UAUCUGACUGAGGACAAUGUU; sense: DNA at AGT, 2'-fluoro at CU, [invAb] at 5' end, 3' end, backbone not given here; antisense: sugars from the 5' end rrrffmmffmmmmrfmmfmmm, backbone not given here)	52%	52%	47%	No significant effect
48722-DC: siNA duplex, ICAM-1 target site 2240 (h); sense B GAcAuAcAAcuGGGAAAuA TTB; antisense UAUuucccAGuuGuAuGucUU (sense GACAUACAACUGGGAAAUATT; antisense UAUUUCCCAGUUGUAUGUCUU; sense: DNA at AGT, 2'-fluoro at CU, [invAb] at 5' end, 3' end, backbone not given here; antisense: sugars from the 5' end rrrfffffmmffmfmfmffmm, backbone not given here)	71%	53%	43%	No significant effect
